Measurements: PMC10258794, “To Fold or Not to Fold: Diastereomeric Optimization of an α-Helical Antimicrobial Peptide” (Journal of Medicinal Chemistry, 2023)
Values after ≈ are worked out from the molar mass of the structure shown. Like-named read-outs stand apart in the source and are kept apart here.

What was measured:
[1] = system: Stenotrophomonas maltophilia; assay: microbe, parasite or virus in culture; type: cell-based; conditions: pH 7.4
Description: (§1) Antimicrobial activity was determined for all peptides on E. coli W3110, P. aeruginosa PAO1, A. baumannii ATCC19606, K. pneumoniae NCTC418, and methicillin-resistant S. aureus COL and for selected peptides on P. aeruginosa PA14 and the polymyxin B-resistant derivatives PA14 4.13, PA14 4.18, and PA14 2P4 as well as the clinical isolates ZEM-1A and ZEM9A, K. pneumoniae OXA-48, Enterobacter cloacae, Stenotrophomonas maltophilia, B. cenocepacia, and Staphylococus epidermis. To determine the MIC, the broth microdilution method was used.[75] A single bacterial colony was grown in LB medium overnight at 37 °C and 180 rpm shaking. The compounds were prepared as stock solutions of 2 mg/mL in sterilized milliQ deionized water, added to the first well of 96-well sterile, polypropylene round-bottom microtiter plates (TPP, untreated, Corning Incorporated, Kennebunk, USA), and diluted serially by 1/2. […] The bacterial inoculum was prepared by measuring the absorbance of the overnight culture, which was diluted to concentration of the bacteria was quantified by measuring absorbance at 600 nm and diluted to an OD600 of 0.022 in MH medium pH 7.4 (Sigma-Aldrich, Buchs, Switzerland). The sample solutions (150 μL) were mixed with 4 μL of diluted bacterial suspension with a final inoculation of about 5 × 10^5 CFU. For each test, two columns of the plate were kept for sterility control (MH medium only) and growth control (MH medium with bacterial inoculum, no compound). […] The plates were incubated at 37 °C for 16–20 h under static conditions. 15 μL of 3-(4,5-dimethylthiazol-2-yl)-2,5-diphenyltetrazolium bromide (MTT)[76] (1 mg/mL in sterilized milliQ deionized water) was added to each well, and the plates were incubated at room temperature until MTT staining was completed. The MIC was defined as the lowest concentration of the dendrimer that inhibits the visible growth of the tested bacteria (yellow) with the unaided eye.

HEK293 cells = assay: Alamar blue cytotoxicity, HEK293; type: cell-based, human; conditions: 24 h, mean ± SD, n = 3, read-out: Toxicity on HEK293 cells
Description: (§2) The A549 human lung adenocarcinoma cells are derived from a patient and were kindly given to us by Dr. Georgia Konstatinidou (Pharmacology Institute, Bern University). HEK293T cells were obtained from ATCC (CRL-11268). A549 and HEK293 were cultured in an incubator at 37 °C with 5% CO2 in RPMI-1640 (Gibco) and DMEM (Gibco) containing 10% fetal bovine serum (Thermo Fisher), 100 I.U./mL penicillin, and 100 μg/mL streptomycin (Gibco).
(§3) The viability of the cells was assessed with an AlamarBlue assay (ThermoFisher). Cells were seeded into 96-well plates, 4000 cells/well (HEK293) and 8000 cells/well (A549), the day before the experiment. Cells were then treated with the increasing concentration of the compound and incubated for 24 h at 37 °C in the presence of 5% CO2. The next day, the medium was removed and replaced by a 10% AlamarBlue solution in full growth medium (DMEM or RPMI-1640). The cells were incubated for 3–5 h at 37 °C with 5% CO2 in a humidified atmosphere. The fluorescence was then measured on a Tecan Infinite M1000 Pro plate reader at λex 560 nm and λem 590 nm. The value was normalized according to the untreated cells.

A549 cells = assay: Alamar blue cytotoxicity, A549; type: cell-based, human; conditions: 24 h, mean ± SD, n = 3, read-out: Toxicity on A549 lung cancern cells
Description: as §2, §3

S. aureus Newman = conditions: for MIC S. aureus Newman: MH broth pH 7.4, 16–20 h, 37 °C; for MIC S. aureus Newmann: supplementary CSV
Staphylococcus epidermis = assay: MIC broth microdilution, Staphylococcus epidermis; type: cell-based; conditions: pH 7.4
Description: as §1

K. pneumoniae Oxa-48 = assay: MIC broth microdilution, K. pneumoniae Oxa-48; type: cell-based, Klebsiella pneumoniae; conditions: MDR strain; MH broth pH 7.4, 16–20 h, 37 °C
Description: as §1

P. aeruginosa ZEM9A = assay: microbe, parasite or virus in culture; type: cell-based, Pseudomonas aeruginosa; conditions: pH 7.4
Description: as §1

P. aeruginosa PAO1 = system: P. aeruginosa PAO1
Method in brief: (§4)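 A colony was grown overnight in LB at 37 °C, diluted in MH medium pH 7.4 to OD600 0.022 and added to 1/2 serial dilutions of compound (final about 5 × 10^5 CFU).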

S. aureus COL MRSA = conditions: for MIC S. aureus COL MRSA: MH broth pH 7.4, 16–20 h, 37 °C; for MIC S. aureus COL: supplementary CSV, ranges of Table 1 given as one number
Method in brief: as §4

K. pneumoniae NCTC418 = system: K. pneumoniae NCTC418
Method in brief: as §4

E. coli W3110 = system: E. coli W3110
Method in brief: as §4

A. baumannii ATCC19606 = system: A. baumannii ATCC19606
Method in brief: as §4

P. aeruginosa PA14 = assay: microbe, parasite or virus in culture; conditions: for MIC PA14: MH broth pH 7.4, 16–20 h, 37 °C; for MIC P. aeruginosa PA14: supplementary CSV
Description: as §1

PA14 4.13 (phoQ) = assay: microbe, parasite or virus in culture; conditions: supplementary CSV
Description: as §1

PA14 4.18 (pmrB) = assay: microbe, parasite or virus in culture; conditions: supplementary CSV
Description: as §1

Enterobacter cloacae = assay: microbe, parasite or virus in culture; conditions: pH 7.4
Description: as §1

P. aeruginosa ZEM-1A = assay: microbe, parasite or virus in culture; conditions: pH 7.4
Description: as §1

PA14 2P4 (pmrB) = assay: microbe, parasite or virus in culture; conditions: supplementary CSV
Description: as §1

Burkolderia cenocepacia = assay: microbe, parasite or virus in culture; conditions: for MIC Burkolderia cenocepacia: MDR strain, MH broth pH 7.4, 16–20 h, 37 °C
Description: as §1

[2] = EYPC vesicle leakage assay; type: biochemical; conditions: 10 μg/mL of compound; 10 mM TRIS, 107 mM NaCl, pH 7.4
Description: 5(6)-carboxyfluorescein (CF) was purchased from Sigma. EYPC, EYPG, and a Mini-Extruder were purchased from Avanti Polar Lipids. Egg PC or Egg PG thin lipid layers were prepared by evaporating a solution of 100 mg of EYPC or EYPG in 4 mL of MeOH/CHCl3 (1:1) on a rotary evaporator at room temperature and then dried in vacuo overnight. […] Extravesicular components were removed by gel filtration (Sephadex G-50) with 10 mM TRIS, 107 mM NaCl, pH 7.4 buffer. Final conditions: ∼2.5 mM PC or PG; inside: 50 mM CF, 10 mM TRIS, 10 mM NaCl, pH 7.4 buffer; outside: 10 mM TRIS, 107 mM NaCl, pH 7.4. […] The CF efflux was monitored at λem 517 nm (λex 492 nm) as a function of time after addition of the desired volume of peptide from 2 mg/mL stock in mQ water at t = 45 s, 10 and 50 μg/mL were monitored for both EYPC and EYPG. […] Fluorescence intensities were then normalized to the maximal emission intensity using I(t) = (It – I0)/(I∞ – I0) where I0 = It at peptide addition, I∞ = It at saturation of lysis.

[3] = system: Pseudomonas aeruginosa, Klebsiella pneumoniae, Acinetobacter baumannii, Escherichia coli, and methicillin-resistant Staphylococcus aureus; conditions: summary of Table 1
Method in brief: as §4

[4] = MH broth pH 7.4, 16–20 h, 37 °C
[5] = supplementary CSV, ranges of Table 1 given as one number

Compound | MIC Stenotrophomonas maltophilia [1] | IC50 (HEK293 cells) | IC50 (A549 cells) | MIC S. aureus Newman (S. aureus Newman) | MIC S. aureus Newmann (S. aureus Newman) | MIC Staphylococcus epidermis (Staphylococcus epidermis) | MIC K. pneumoniae Oxa-48 (K. pneumoniae Oxa-48) | MIC ZEM9A (P. aeruginosa ZEM9A) | MIC P. aeruginosa PAO1 (P. aeruginosa PAO1; [4]) | MIC P. aeruginosa PAO1 (P. aeruginosa PAO1; [5]) | MIC S. aureus COL MRSA (S. aureus COL MRSA) | MIC S. aureus COL (S. aureus COL MRSA) | MIC K. pneumoniae NCTC418 (K. pneumoniae NCTC418; [4]) | MIC K. pneumoniae NCTC418 (K. pneumoniae NCTC418; [5]) | MIC E. coli W3110 (E. coli W3110; [4]) | MIC A. baumannii ATCC19606 (A. baumannii ATCC19606; [4]) | MIC A. baumannii ATCC19606 (A. baumannii ATCC19606; [5]) | MIC PA14 (P. aeruginosa PA14) | MIC P. aeruginosa PA14 (P. aeruginosa PA14) | MIC P. aeruginosa PA14 4.13 (PA14 4.13 (phoQ)) | further results
CC(C)C[C@H](NC(=O)[C@H](CC(C)C)NC(=O)[C@H](CC(C)C)NC(=O)[C@H](CCCCN)NC(=O)[C@H](CC(C)C)NC(=O)[C@H](CC(C)C)NC(=O)[C@H](CCCCN)NC(=O)[C@H](CC(C)C)NC(=O)[C@H](CC(C)C)NC(=O)[C@@H](CCCCN)NC(=O)[C@@H](N)CCCCN)C(N)=O [HP1] | 4 µg/mL (≈ 3.03 µM) | 42.9 ± 2.6 µM | 2.7 ± 2.4 µM | 2 µg/mL (≈ 1.51 µM) | 2 µg/mL (≈ 1.51 µM) | 2 µg/mL (≈ 1.51 µM) | 8 µg/mL (≈ 6.05 µM) | 4 µg/mL (≈ 3.03 µM) | 4 µg/mL (≈ 3.03 µM) | 4 µg/mL (≈ 3.03 µM) | 2 µg/mL (≈ 1.51 µM) | 2 µg/mL (≈ 1.51 µM) | 4 to 8 µg/mL | 6 µg/mL (≈ 4.54 µM) | 2 µg/mL (≈ 1.51 µM) | 4 µg/mL (≈ 3.03 µM) | 4 µg/mL (≈ 3.03 µM) | 2 µg/mL (≈ 1.51 µM) | 2 µg/mL (≈ 1.51 µM) | 4 µg/mL (≈ 3.03 µM) | MIC P. aeruginosa PA14 4.18 (PA14 4.18 (pmrB)): 32 µg/mL (≈ 24.2 µM); MIC Enterobacter cloacae (Enterobacter cloacae): 2 µg/mL (≈ 1.51 µM); MIC ZEM-1A (P. aeruginosa ZEM-1A): 2 µg/mL (≈ 1.51 µM); MIC P. aeruginosaPA14 2P4 (PA14 2P4 (pmrB)): 64 µg/mL (≈ 48.4 µM); MIC Burkolderia cenocepacia (Burkolderia cenocepacia): >64 µg/mL
CC(C)C[C@H](NC(=O)[C@H](CC(C)C)NC(=O)[C@H](CC(C)C)NC(=O)[C@@H](CCCCN)NC(=O)[C@@H](CC(C)C)NC(=O)[C@@H](CC(C)C)NC(=O)[C@@H](CCCCN)NC(=O)[C@H](CC(C)C)NC(=O)[C@H](CC(C)C)NC(=O)[C@H](CCCCN)NC(=O)[C@@H](N)CCCCN)C(N)=O [HP13, KKLLkllkLLL] | – | – | – | – | – | – | – | – | 16 to 32 µg/mL | 24 µg/mL (≈ 18.2 µM) | – | – | – | – | 4 to 8 µg/mL | 16 to 32 µg/mL | 24 µg/mL (≈ 18.2 µM) | – | – | – | EYPC vesicle leakage (%) [2]: 8%; MIC E. coli W3110 (E. coli W3110; [5]): 6 µg/mL (≈ 4.54 µM); MIC, span over E. coli, P. aeruginosa, and A. baumannii [3]: 4 to 32 µg/mL
CC(C)C[C@H](NC(=O)[C@H](CC(C)C)NC(=O)[C@H](CC(C)C)NC(=O)[C@@H](CCCCN)NC(=O)[C@H](CC(C)C)NC(=O)[C@H](CC(C)C)NC(=O)[C@@H](CCCCN)NC(=O)[C@H](CC(C)C)NC(=O)[C@H](CC(C)C)NC(=O)[C@@H](CCCCN)NC(=O)[C@H](N)CCCCN)C(N)=O [ln69, kkLLkLLkLLL] | 2 µg/mL (≈ 1.51 µM) | 45 ± 8.9 µM | 21 ± 3.3 µM | 8 µg/mL (≈ 6.05 µM) | 8 µg/mL (≈ 6.05 µM) | 4 µg/mL (≈ 3.03 µM) | 4 µg/mL (≈ 3.03 µM) | 8 µg/mL (≈ 6.05 µM) | 8 µg/mL (≈ 6.05 µM) | 8 µg/mL (≈ 6.05 µM) | 16 µg/mL (≈ 12.1 µM) | 16 µg/mL (≈ 12.1 µM) | 8 µg/mL (≈ 6.05 µM) | 8 µg/mL (≈ 6.05 µM) | 4 µg/mL (≈ 3.03 µM) | 2 to 4 µg/mL | 3 µg/mL (≈ 2.27 µM) | 2 µg/mL (≈ 1.51 µM) | 2 µg/mL (≈ 1.51 µM) | 4 µg/mL (≈ 3.03 µM) | MIC P. aeruginosa PA14 4.18 (PA14 4.18 (pmrB)): 16 µg/mL (≈ 12.1 µM); MIC Enterobacter cloacae (Enterobacter cloacae): 4 µg/mL (≈ 3.03 µM); MIC ZEM-1A (P. aeruginosa ZEM-1A): 2 µg/mL (≈ 1.51 µM); MIC P. aeruginosaPA14 2P4 (PA14 2P4 (pmrB)): 32 µg/mL (≈ 24.2 µM); MIC Burkolderia cenocepacia (Burkolderia cenocepacia): >64 µg/mL; MIC B. cenocepacia (Burkolderia cenocepacia; supplementary CSV): > 64 µg/mL
